Reference: patent publication US20180087027A1, “METHOD FOR […] OF HUMAN MESENCHYMAL STEM CELLS” (SEOUL NATIONAL UNIVERSITY HOSPITAL, priority 2015, published 2018)

Assays:
Assay type in all cases: cell-based
[1] = system: Oct4 protein in human MSCs; assay: Western blotting of Oct4 protein expression in human MSCs treated with ET-1
Experimental: To determine a level of expression of an Oct4 protein in human MSCs when the human MSCs were treated with ET-1, human MSCs purchased from Lonza were treated with an increasing concentration (0, 0.0125, 0.025, 0.125, and 0.25 μg/mL) of ET-1, and a level of protein expression was determined through western blotting.

Oct4 mRNA in human MSCs = assay: Real time PCR of Oct4 mRNA expression in human MSCs treated with ET-1; conditions: RNA extracted 24 hours after ET-1 treatment, FIG. 2
Experimental: To compare levels of mRNA expression of Oct4 in human MSCs treated with ET-1, the human MSCs were treated with ET-1, and RNA was extracted therefrom after 24 hours to synthesize complementary cDNA. Thereafter, real time PCR was performed using the complementary cDNA as a template and Oct4 amplification primers set forth in the following SEQ ID NOs: 1 and 2.
SEQ ID NO: 1: 5′-gaggcaacct ggagaatttg-3′ (Oct4 forward primer)
SEQ ID NO: 2: 5′-tagcctgggg taccaaaatg-3′ (Oct4 reverse primer)

human MSCs [2] = assay: Real time gDNA PCR comparing length of telomeres in human MSCs treated with ET-1; conditions: 0.025 μg/mL ET-1, medium replaced after 24 hours, gDNA collected after 3 days; FIG. 3
Experimental: To check a change in a length of telomeres in human MSCs when the human MSCs were treated or were not treated with ET-1, the human MSCs were prepared so that the cells reached a confluency of 60% on a 60 mm plate. Before the human MSCs were treated with ET-1, a culture broth was replaced with a fresh culture broth. Thereafter, the human MSCs were treated with 0.025 μg/mL of ET-1, and the medium was replaced with a fresh culture broth after 24 hours. After 3 days, gDNA samples were collected. Then, real time gDNA PCR was performed using the samples to compare the lengths of the telomeres by means of ET-1 treatment.

human MSCs [3] = assay: G-banding karyotype analysis of chromosomal stability in human MSCs treated with ET-1; conditions: human MSCs treated with ET-1 as in Example 2, FIG. 4
Experimental: For this purpose, the G-banding karyotype analysis method known as a basic test method for evaluating genomic stability was performed. The G-banding karyotype analysis method is a method of pre-treating stem cells with trypsin, which is a proteolytic enzyme, and staining chromosomes with a Giemsa stain. In this case, euchromatin is stained with a light color, and heterochromatin is stained with a dark color. The G-banding karyotype analysis method is the test method most often used for chromosomal analysis because many staining bands are generated.

**Q.** endothelin-1 [ET-1] was tested. Which “level of protein expression of Oct4 across the tested ET-1 concentrations” value ([1]; ET-1 at a concentration of 0.025 μg/mL, FIG. 1) did it give?
**A.** Its value is “highest level of protein expression”.

**Q.** And the “level of protein expression of the stemness marker Oct4” value ([1]; human MSCs (Lonza) treated with 0, 0.0125, 0.025, 0.125 and 0.25 μg/mL ET-1, FIG. 1)?
**A.** The value was “significantly increased”.

**Q.** And the “mRNA expression of Oct4” value (Oct4 mRNA in human MSCs)?
**A.** Its value is “increased”.

**Q.** What about the “lengths of the telomeres versus MSCs not treated with ET-1” value (human MSCs [2]) of the same substance?
**A.** The value was “extended approximately three-fold or more”.

**Q.** And the “chromosomal stability (chromosomal dysfunction)” value (human MSCs [3])?
**A.** The value was “chromosomal dysfunction was not induced”.
